Data taken from patent US20090004185A1, “AMINO-SUBSTITUTED QUINAZOLINE DERIVATIVES AS INHIBITORS OF BETA-CATENIN/TCF-4 PATHWAY AND CANCER TREATMENT AGENTS” (WYETH, priority 2007, published 2009).

Columns and labels:
[1] = test system: β-catenin/Tcf-4; test: cells; assay type: cell-based; settings: 24 hours of incubation with compound, ratio Firefly/Renilla luciferase
How it was run: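 SW480-derived lines with integrated reporters (Tcf-4-driven firefly luciferase; SV40 firefly as specificity control; SV40 Renilla for cell number/toxicity), treated 24 hours with titrated compounds, final 0.316% DMSO. Dual-luciferase read-out; firefly/Renilla ratio as % of control, duplicate plates, IC50 (nM) from curve fit.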

[2] = test system: SV40-Luc; test: SV40-Luc control luciferase reporter assay, SV 5A8 cell line (SV40-Luc and SV40-R-Luc), control for non-specific inhibitors; assay type: cell-based, human; settings: SV 5A8 cells derived from SW480, 24 hours of incubation with compound, ratio Firefly/Renilla luciferase
How it was run: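 Stable SW480 reporter clones are exposed to compound dilutions for 24 h at 0.316% DMSO. Firefly signal, Tcf-4- or SV40-driven, is divided by SV40-Renilla signal, and IC50 is derived from this ratio relative to control.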

[3] = Homo sapiens, SW480, 24 h, Tcf 33.13 cells derived from SW480
[4] = Homo sapiens, Tcf22C11, 24 h, Tcf 22C11 cells derived from SW480
[5] = Tcf 22C11 cells derived from SW480
[6] = Tcf 33.13 cells derived from SW480

| IC50 [1, 3] [nM] | IC50 [1, 4] [nM] | IC50 ([2]; Homo sapiens, SV5A8, 24 h) [nM] | IC50 [1, 5] [nM] | IC50 [1, 6] [nM] | IC50 [2] [nM] | Structure (SMILES) |
| --- | --- | --- | --- | --- | --- | --- |
| 1330 | 1580 | > 17700 | – | – | – | Cc1ccc2c(NCc3ccc(NC(=O)C4CCN(Cc5ccccc5)CC4)cc3)nc(N3CCN(C)CC3)nc2c1 [Example 141, 1-benzyl-N-[4-({[7-methyl-2-(4-methylpiperazin-1-yl)quinazolin-4-yl]amino}methyl)phenyl]piperidine-4-carboxamide] |
| 1680 | 1920 | > 23100 | – | – | – | Cc1ccc2c(NCc3ccc(NC(=O)C4CCN(C)CC4)cc3)nc(N(C)C)nc2c1 [Example 243, N-[4-({[2-(dimethylamino)-7-methylquinazolin-4-yl]amino}methyl)phenyl]-1-methylpiperidine-4-carboxamide] |
| 795 | 850 | > 1370 | – | – | – | O=C(Nc1ccc(CNc2nc(NC3CCCC3)nc3ccccc23)cc1)c1ccc(F)cc1 [Example 120, N-[4-({[2-(cyclopentylamino)quinazolin-4-yl]amino}methyl)phenyl]-4-fluorobenzamide] |
| 962 | 1100 | > 4660 | – | – | – | CNc1nc(NCc2ccc(NC(=O)c3ccc(C#N)cc3)cc2)c2cccc(C)c2n1 [Example 266, 4-cyano-N-[4-({[8-methyl-2-(methylamino)quinazolin-4-yl]amino}methyl)phenyl]benzamide] |
| 3680 | 1860 | > 16300 | – | – | – | Cc1ccc2c(NCc3ccc(NC(=O)c4ccc(F)cc4)cc3)nc(N3CCN(C=O)CC3)nc2c1 [Example 217, 4-fluoro-N-[4-({[2-(4-formylpiperazin-1-yl)-7-methylquinazolin-4-yl]amino}methyl)phenyl]benzamide] |
| 754 | 866 | > 9280 | – | – | – | Cc1ccc2c(NCc3ccc(NC(=O)c4ccc(F)cc4)cc3)nc(N3CCC(N4CCCC4)CC3)nc2c1 [Example 226, 4-fluoro-N-[4-({[7-methyl-2-(4-pyrrolidin-1-ylpiperidin-1-yl)quinazolin-4-yl]amino}methyl)phenyl]benzamide] |
| 184 | 213 | > 4590 | – | – | – | Cc1ccc2c(NCc3ccc(NC(=O)C4CCN(Cc5cc(F)ccc5F)CC4)cc3)nc(N(C)C)nc2c1 [Example 262, 1-(2,5-difluorobenzyl)-N-[4-({[2-(dimethylamino)-7-methylquinazolin-4-yl]amino}methyl)phenyl]piperidine-4-carboxamide] |
| – | – | – | 712 | 537 | > 4680 | CCCC/C=C/c1ccc2nc(N(C)C)nc(NCc3ccc(C(=O)Nc4ccc(F)cc4)cc3)c2c1 [Example 175, E-(4-((2-dimethylamino)-6-(hex-1-enyl)quinazolin-4-ylamino)methyl)-N-(4-fluorophenyl)benzamide] |
| 227 | 223 | > 1400 | – | – | – | Cc1ccc2c(NCc3ccc(NC(=O)c4ccc(Cl)cc4)cc3)nc(N(C)C)nc2c1 [Example 196, 4-chloro-N-[4-({[2-(dimethylamino)-7-methyl-quinazolin-4-yl]amino}methyl)phenyl]benzamide] |
| 118 | 249 | > 4910 | – | – | – | C/C=C/c1ccc2c(NCc3ccc(NC(=O)c4ccc(Cl)nc4)cc3)nc(N(C)C)nc2c1 [Example 112, 6-chloro-N-{4-[({2-(dimethylamino)-7-[(1E)-prop-1-en-1-yl]quinazolin-4-yl}amino)methyl]phenyl}nicotinamide] |
| > 9510 | > 9510 | > 9510 | – | – | – | O=C(Nc1ccc(CNc2nc(NC3CCC3)nc3ccc(C(F)(F)F)cc23)cc1)c1ccc(Cl)cc1 [Example 166, 4-chloro-N-[4-({[2-(cyclobutylamino)-6-(trifluoromethyl)quinazolin-4-yl]amino}methyl)phenyl]benzamide] |
| 1840 | 1010 | > 9360 | – | – | – | Cc1ccc2nc(N(C)C)nc(N[C@@H](C)c3ccc(NC(=O)c4ccc(Cl)nc4)cc3)c2c1 [Example 274, (S)-6-chloro-N-(4-(1-(2-(dimethylamino)-6-methylquinazolin-4-ylamino)ethyl)phenyl)nicotinamide] |
| 933 | 1140 | > 4230 | – | – | – | CNc1nc(NCc2ccc(NC(=O)c3ccc(Br)cc3)cc2)c2cccc(C)c2n1 [Example 265, 4-bromo-N-[4-({[8-methyl-2-(methylamino)quinazolin-4-yl]amino}methyl)phenyl]benzamide] |
| 664 | 1310 | > 4990 | – | – | – | Cc1ccc2c(NCc3ccc(NC(=O)c4ccc(F)cc4)cc3)nc(N(C)CCCN(C)C)nc2c1 [Example 201, N-{4-[({2-[[3-(dimethylamino)propyl](methyl)amino]-7-methylquinazolin-4-yl}amino)methyl]phenyl}-4-fluorobenzamide] |
| 736 | 1150 | > 10000 | – | – | – | CCN1CCN(c2nc(NCc3ccc(NC(=O)c4ccc(F)cc4)cc3)c3ccc(C)cc3n2)CC1 [Example 227, N-[4-({[2-(4-ethylpiperazin-1-yl)-7-methylquinazolin-4-yl]amino}methyl)phenyl]-4-fluorobenzamide] |

Second part, the compound before the results:

| Structure (SMILES) | IC50 [1, 3] [nM] | IC50 [1, 4] [nM] | IC50 ([2]; Homo sapiens, SV5A8, 24 h) [nM] | IC50 [1, 5] [nM] | IC50 [1, 6] [nM] | IC50 [2] [nM] |
| --- | --- | --- | --- | --- | --- | --- |
| CN(C)c1nc(NCc2ccc(NC(=O)c3ccc(F)cc3)cc2)c2ccc(/C=C/C(C)(C)C)cc2n1 [Example 102, N-{4-[({2-(dimethylamino)-7-[(1E)-3,3-dimethylbut-1-en-1-yl]quinazolin-4-yl}amino)methyl]phenyl}-4-fluorobenzamide] | 825 | 1340 | > 9360 | – | – | – |
| CNc1nc(NCc2ccc(NC(=O)c3ccc(Cl)nc3)cc2)c2cc(OC)ccc2n1 [Example 31, 6-chloro-N-[4-({[6-methoxy-2-(methylamino)quinazolin-4-yl]amino}methyl)phenyl]nicotinamide] | 4120 | 5950 | > 22300 | – | – | – |
| Cc1ccc2nc(N3CCCC3)nc(NCc3ccc(NC(=O)C4CCN(Cc5ccccc5)CC4)cc3)c2c1 [Example 77, 1-benzyl-N-(4-{[(6-methyl-2-pyrrolidin-1-ylquinazolin-4-yl)amino]methyl}phenyl)piperidine-4-carboxamide] | 847 | 2260 | > 8230 | – | – | – |
| Cc1ccc2nc(N(C)C)nc(NCc3ccc(NC(=O)c4ccc(F)cc4)cc3)c2c1 [Example 40, N-[4-({[2-(dimethylamino)-6-methylquinazolin-4-yl]amino}methyl)phenyl]-4-fluorobenzamide] | – | – | – | 1620 | 2050 | > 11600 |
| C#Cc1ccc2c(NCc3ccc(NC(=O)c4ccc(F)cc4)cc3)nc(N(C)C)nc2c1 [Example 108, N-[4-({[2-(dimethylamino)-7-ethynylquinazolin-4-yl]amino}methyl)phenyl]-4-fluorobenzamide] | 236 | 508 | > 5250 | – | – | – |
| CCOC(=O)N1CCN(c2nc(NCc3ccc(NC(=O)c4ccc(F)cc4)cc3)c3cc(C)ccc3n2)CC1 [Example 54, Ethyl 4-[4-({4-[(4-fluorobenzoyl)amino]benzyl}amino)-6-methylquinazolin-2-yl]piperazine-1-carboxylate] | 846 | 1230 | > 18400 | – | – | – |
| C/C=C/c1ccc2c(NCc3ccc(NC(=O)c4ccc(F)cc4)cc3)nc(N(C)C)nc2c1 [Example 96, N-{4-[({2-(dimethylamino)-7-[(1E)-prop-1-en-1-yl]quinazolin-4-yl}amino)methyl]phenyl}-4-fluorobenzamide] | 511 | 497 | > 2540 | – | – | – |
| CNc1nc(NCc2ccc(NC(=O)c3ccc(F)cc3F)cc2)c2cc(C)ccc2n1 [Example 34, 2,4-difluoro-N-[4-({[6-methyl-2-(methylamino)quinazolin-4-yl]amino}methyl)phenyl]benzamide] | 3230 | 4190 | > 11500 | – | – | – |
| Cc1ccc2nc(N(C)C)nc(NCc3ccc(NC(=O)c4ccc(Cl)cc4)cc3)c2c1 [Example 53, 4-chloro-N-[4-({[2-(dimethylamino)-6-methylquinazolin-4-yl]amino}methyl)phenyl]benzamide] | 306 | 462 | > 2800 | – | – | – |
| CNc1nc(NCc2ccc(NC(=O)c3ccc(F)c(F)c3)cc2)c2cc(C)ccc2n1 [Example 32, 3,4-difluoro-N-[4-({[6-methyl-2-(methylamino)quinazolin-4-yl]amino}methyl)phenyl]benzamide] | 81 | 100 | > 577 | – | – | – |
| Cc1ccc2nc(N3CCCCCC3)nc(NCc3ccc(NC(=O)c4ccc(F)cc4)cc3)c2c1 [Example 56, N-(4-{[(2-azepan-1-yl-6-methylquinazolin-4-yl)amino]methyl}phenyl)-4-fluorobenzamide] | 2010 | 1740 | > 5170 | – | – | – |
| CNc1nc(NCc2ccc(NC(=O)c3ccc(C(F)(F)F)cc3)cc2)c2cc(C)ccc2n1 [Example 27, N-[4-({[6-methyl-2-(methylamino)quinazolin-4-yl]amino}methyl)phenyl]-4-(trifluoromethyl)benzamide] | 402 | 526 | > 5370 | – | – | – |
